Test results as given in patent US9469650B2, “Melampomagnolide B derivatives” (BOARD OF TRUSTEES OF THE UNIVERSITY OF ARKANSAS, priority 2013, dated 2016).

Columns and labels:
A498 = test: panel of 60 human tumor cell lines, growth inhibition (Renal Cancer); settings: A498
HOP-62 = test: panel of 60 human tumor cell lines, growth inhibition (Non-Small Cell Lung Cancer); settings: HOP-62
NCI-H460 = test: as above; settings: NCI-H460
MDA-MB-468 = test: panel of 60 human tumor cell lines, growth inhibition (Breast Cancer); settings: MDA-MB-468
HS 578T = test: as above; settings: for Percent Growth: HS 57BT
HOP-92 = test: panel of 60 human tumor cell lines, growth inhibition (Non-Small Cell Lung Cancer); settings: HOP-92
T-47D = test: panel of 60 human tumor cell lines, growth inhibition (Breast Cancer); settings: T-47D
DU-145 = test: panel of 60 human tumor cell lines, growth inhibition (Prostate Cancer); settings: DU-145
SK-MEL-5 = test: panel of 60 human tumor cell lines, growth inhibition (Melanoma); settings: 8K-MEL-5

Structure (SMILES): C=C1C(=O)O[C@H]2[C@H]1CC/C(COC(=O)N1CCN(C)CC1)=C\CC[C@@]1(C)O[C@@H]21 [JVM 2-44]
- GI50 (A498): 10.2 µM
- TGI (A498): 3.47E−5
- Mean Optical Densities (A498; Log10 Concentration −4.0): 0.967
- Percent Growth (A498; Log10 Concentration −4.0): −43%
- Mean Optical Densities (A498; Log10 Concentration −5.0): 2.150
- Percent Growth (A498; Log10 Concentration −5.0): 51%
- Mean Optical Densities (A498; Log10 Concentration −6.0): 2.296
- Percent Growth (A498; Log10 Concentration −6.0): 67%
- Mean Optical Densities (A498; Log10 Concentration −7.0): 2.301
- Percent Growth (A498; Log10 Concentration −7.0): 68%
- Mean Optical Densities (A498; Log10 Concentration −8.0): 2.357
- Percent Growth (A498; Log10 Concentration −8.0): 74%
- GI50 (HOP-62): 27.3 µM
- TGI (HOP-62): >1.00E−4
- Mean Optical Densities (HOP-62; Log10 Concentration −4.0): 0.936
- Percent Growth (HOP-62; Log10 Concentration −4.0): 7%
- Mean Optical Densities (HOP-62; Log10 Concentration −5.0): 2.007
- Percent Growth (HOP-62; Log10 Concentration −5.0): 83%
- Mean Optical Densities (HOP-62; Log10 Concentration −6.0): 2.174
- Percent Growth (HOP-62; Log10 Concentration −6.0): 95%
- Mean Optical Densities (HOP-62; Log10 Concentration −7.0): 2.046
- Percent Growth (HOP-62; Log10 Concentration −7.0): 86%
- Mean Optical Densities (HOP-62; Log10 Concentration −8.0): 2.193
- Percent Growth (HOP-62; Log10 Concentration −8.0): 96%
- GI50 (NCI-H460): 20.3 µM
- TGI (NCI-H460): 5.67E−5
- Mean Optical Densities (NCI-H460; Log10 Concentration −4.0): 0.202
- Percent Growth (NCI-H460; Log10 Concentration −4.0): −28%
- Mean Optical Densities (NCI-H460; Log10 Concentration −5.0): 2.401
- Percent Growth (NCI-H460; Log10 Concentration −5.0): 84%
- Mean Optical Densities (NCI-H460; Log10 Concentration −6.0): 2.741
- Percent Growth (NCI-H460; Log10 Concentration −6.0): 98%
- Mean Optical Densities (NCI-H460; Log10 Concentration −7.0): 2.825
- Percent Growth (NCI-H460; Log10 Concentration −7.0): 101%
- Mean Optical Densities (NCI-H460; Log10 Concentration −8.0): 2.830
- Percent Growth (NCI-H460; Log10 Concentration −8.0): 101%
- GI50 (MDA-MB-468): 1870 nM
- TGI (MDA-MB-468): 8.56E−6
- Mean Optical Densities (MDA-MB-468; Log10 Concentration −4.0): 0.228
- Percent Growth (MDA-MB-468; Log10 Concentration −4.0): −71%
- Mean Optical Densities (MDA-MB-468; Log10 Concentration −5.0): 0.737
- Percent Growth (MDA-MB-468; Log10 Concentration −5.0): −5%
- Mean Optical Densities (MDA-MB-468; Log10 Concentration −6.0): 1.156
- Percent Growth (MDA-MB-468; Log10 Concentration −6.0): 66%
- Mean Optical Densities (MDA-MB-468; Log10 Concentration −7.0): 1.377
- Percent Growth (MDA-MB-468; Log10 Concentration −7.0): 104%
- Mean Optical Densities (MDA-MB-468; Log10 Concentration −8.0): 1.328
- Percent Growth (MDA-MB-468; Log10 Concentration −8.0): 95%
- GI50 (HS 578T): 16.7 µM
- TGI (HS 578T): >1.00E−4
- Percent Growth (HS 578T; Log10 Concentration −4.0): 5%
- Percent Growth (HS 578T; Log10 Concentration −5.0): 63%
- Percent Growth (HS 578T; Log10 Concentration −6.0): 90%
- Percent Growth (HS 578T; Log10 Concentration −7.0): 86%
- Percent Growth (HS 578T; Log10 Concentration −8.0): 90%
- Mean Optical Densities (HS 578T; Log10 Concentration −4.0): 1.235
- Mean Optical Densities (HS 578T; Log10 Concentration −5.0): 1.827
- Mean Optical Densities (HS 578T; Log10 Concentration −6.0): 2.096
- Mean Optical Densities (HS 578T; Log10 Concentration −7.0): 2.057
- Mean Optical Densities (HS 578T; Log10 Concentration −8.0): 2.099
- GI50 (HOP-92): 2950 nM
- TGI (HOP-92): 1.48E−5
- Mean Optical Densities (HOP-92; Log10 Concentration −4.0): 0.116
- Percent Growth (HOP-92; Log10 Concentration −4.0): −87%
- Mean Optical Densities (HOP-92; Log10 Concentration −5.0): 0.995
- Percent Growth (HOP-92; Log10 Concentration −5.0): 18%
- Mean Optical Densities (HOP-92; Log10 Concentration −6.0): 1.307
- Percent Growth (HOP-92; Log10 Concentration −6.0): 79%
- Mean Optical Densities (HOP-92; Log10 Concentration −7.0): 1.345
- Percent Growth (HOP-92; Log10 Concentration −7.0): 86%
- Mean Optical Densities (HOP-92; Log10 Concentration −8.0): 1.394
- Percent Growth (HOP-92; Log10 Concentration −8.0): 95%
- GI50 (T-47D): 4.52 µM
- TGI (T-47D): 1.94E−5
- Mean Optical Densities (T-47D; Log10 Concentration −4.0): 0.323
- Percent Growth (T-47D; Log10 Concentration −4.0): −56%
- Mean Optical Densities (T-47D; Log10 Concentration −5.0): 0.946
- Percent Growth (T-47D; Log10 Concentration −5.0): 23%
- Mean Optical Densities (T-47D; Log10 Concentration −6.0): 1.660
- Percent Growth (T-47D; Log10 Concentration −6.0): 102%
- Mean Optical Densities (T-47D; Log10 Concentration −7.0): 1.593
- Percent Growth (T-47D; Log10 Concentration −7.0): 94%
- Mean Optical Densities (T-47D; Log10 Concentration −8.0): 1.664
- Percent Growth (T-47D; Log10 Concentration −8.0): 102%
- GI50 (DU-145): 3.98 µM
- TGI (DU-145): 1.44E−5
- Mean Optical Densities (DU-145; Log10 Concentration −4.0): 0.835
- Percent Growth (DU-145; Log10 Concentration −4.0): −93%
- Mean Optical Densities (DU-145; Log10 Concentration −5.0): 0.750
- Percent Growth (DU-145; Log10 Concentration −5.0): 17%
- Mean Optical Densities (DU-145; Log10 Concentration −6.0): 1.844
- Percent Growth (DU-145; Log10 Concentration −6.0): 99%
- Mean Optical Densities (DU-145; Log10 Concentration −7.0): 1.845
- Percent Growth (DU-145; Log10 Concentration −7.0): 99%
- Mean Optical Densities (DU-145; Log10 Concentration −8.0): 1.839
- Percent Growth (DU-145; Log10 Concentration −8.0): 99%
- GI50 (SK-MEL-5): 16.1 µM
- TGI (SK-MEL-5): 3.06E−5
- Mean Optical Densities (SK-MEL-5; Log10 Concentration −4.0): 0.067
- Percent Growth (SK-MEL-5; Log10 Concentration −4.0): −91%
- Mean Optical Densities (SK-MEL-5; Log10 Concentration −5.0): 2.878
- Percent Growth (SK-MEL-5; Log10 Concentration −5.0): 87%
- Mean Optical Densities (SK-MEL-5; Log10 Concentration −6.0): 3.118
- Percent Growth (SK-MEL-5; Log10 Concentration −6.0): 97%
- Mean Optical Densities (SK-MEL-5; Log10 Concentration −7.0): 3.182
- Percent Growth (SK-MEL-5; Log10 Concentration −7.0): 100%
- Mean Optical Densities (SK-MEL-5; Log10 Concentration −8.0): 3.116
- Percent Growth (SK-MEL-5; Log10 Concentration −8.0): 97%
